Measurements from ChEMBL document CHEMBL1909046, “DrugMatrix in vitro pharmacology data”.

Tests used:
[1] = target: T1, Alpha-1A adrenergic receptor (Rattus norvegicus, UniProt P43140); experiment: DRUGMATRIX: Alpha-1A adrenergic receptor radioligand binding (ligand: prazosin); type: cell membranes, Wistar, Submaxillary gland, Membrane; settings: Not Active = under 50% inhibition at 10 µM
T1 sequence (P43140 whole entry): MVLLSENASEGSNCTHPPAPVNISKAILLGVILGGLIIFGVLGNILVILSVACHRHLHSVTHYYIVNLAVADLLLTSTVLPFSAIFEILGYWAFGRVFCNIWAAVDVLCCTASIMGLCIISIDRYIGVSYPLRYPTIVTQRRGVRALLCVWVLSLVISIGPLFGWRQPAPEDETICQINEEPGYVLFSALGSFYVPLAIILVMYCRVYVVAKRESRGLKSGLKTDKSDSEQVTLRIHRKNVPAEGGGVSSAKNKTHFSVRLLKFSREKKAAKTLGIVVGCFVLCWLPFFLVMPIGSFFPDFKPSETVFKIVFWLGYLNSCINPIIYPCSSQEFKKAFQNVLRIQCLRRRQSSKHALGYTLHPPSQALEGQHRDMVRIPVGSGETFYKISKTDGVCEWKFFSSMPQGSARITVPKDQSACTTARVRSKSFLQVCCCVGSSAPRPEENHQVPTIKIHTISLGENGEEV

[2] = DRUGMATRIX: Interleukin IL-1 radioligand binding (ligand: [125I] interleukin 1beta); type: cell membranes, Membrane; settings: nih3t3; Not Active = under 50% inhibition at 10 µM
[3] = DRUGMATRIX: GABAA, Muscimol, Central radioligand binding (ligand: [3H] Muscimol); type: cell membranes, Rattus norvegicus, Wistar, Brain, Membrane; settings: Not Active = under 50% inhibition at 10 µM
[4] = target: 5-hydroxytryptamine receptor 6 (Homo sapiens, UniProt P50406); type: cell membranes, HeLa, Membrane; settings: hela; also: in other assays of this panel Not Active means under 50% inhibition at 10 µM
[5] = target: T2, Alpha-1D adrenergic receptor (Homo sapiens, UniProt P25100); type: cell membranes, HEK293, Membrane; also: in other assays of this panel Not Active means under 50% inhibition at 10 µM
T2 sequence (P25100 whole entry): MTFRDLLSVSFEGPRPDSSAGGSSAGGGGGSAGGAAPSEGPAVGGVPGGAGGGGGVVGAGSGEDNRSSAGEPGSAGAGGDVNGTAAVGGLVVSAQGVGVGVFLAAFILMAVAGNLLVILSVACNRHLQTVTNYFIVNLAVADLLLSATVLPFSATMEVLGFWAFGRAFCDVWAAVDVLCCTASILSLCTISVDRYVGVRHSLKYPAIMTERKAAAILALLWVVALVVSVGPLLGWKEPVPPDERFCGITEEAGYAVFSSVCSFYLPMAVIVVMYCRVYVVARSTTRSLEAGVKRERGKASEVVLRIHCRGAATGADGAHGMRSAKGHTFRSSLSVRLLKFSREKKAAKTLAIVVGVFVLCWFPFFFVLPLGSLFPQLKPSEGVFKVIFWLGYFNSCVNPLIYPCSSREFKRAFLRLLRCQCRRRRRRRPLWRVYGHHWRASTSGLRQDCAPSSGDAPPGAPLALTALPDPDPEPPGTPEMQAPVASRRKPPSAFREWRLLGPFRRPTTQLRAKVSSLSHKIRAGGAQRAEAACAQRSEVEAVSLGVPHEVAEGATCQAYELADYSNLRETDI

[6] = DRUGMATRIX: Glutamate, Kainate radioligand binding (ligand: [3H] Kainic acid); type: cell membranes, Rattus norvegicus, Wistar, Brain, Membrane; settings: Not Active = under 50% inhibition at 10 µM
[7] = target: Protein kinase C alpha type (Homo sapiens, UniProt P17252); type: cell-based; settings: sf9;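 also: inhibition of PKCalpha kinase activity measured in an enzyme assay with histone as the phosphorylation substrate; in other assays of this panel Not Active means under 50% inhibition at 10 µM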
[8] = target: T3, Progesterone receptor (Bos taurus, UniProt Q690N0); experiment: DRUGMATRIX: Progesterone radioligand binding (ligand: [3H] R-5020); type: tissue-based, Uterus; settings: Not Active = under 50% inhibition at 10 µM
T3 sequence (Q690N0 whole entry): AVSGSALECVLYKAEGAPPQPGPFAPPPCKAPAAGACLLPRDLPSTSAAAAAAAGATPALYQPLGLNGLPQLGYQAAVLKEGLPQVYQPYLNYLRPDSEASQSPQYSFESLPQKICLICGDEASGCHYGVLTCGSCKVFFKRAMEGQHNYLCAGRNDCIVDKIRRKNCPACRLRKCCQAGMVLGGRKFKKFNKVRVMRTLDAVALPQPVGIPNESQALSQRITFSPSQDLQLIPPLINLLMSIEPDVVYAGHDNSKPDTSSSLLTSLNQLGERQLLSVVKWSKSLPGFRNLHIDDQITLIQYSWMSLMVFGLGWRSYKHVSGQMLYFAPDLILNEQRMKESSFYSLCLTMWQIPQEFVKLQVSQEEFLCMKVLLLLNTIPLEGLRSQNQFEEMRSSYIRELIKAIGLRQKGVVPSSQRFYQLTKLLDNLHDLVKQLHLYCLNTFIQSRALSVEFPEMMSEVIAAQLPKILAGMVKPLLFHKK

Chain of 5-hydroxytryptamine receptor 6 (P50406 whole entry): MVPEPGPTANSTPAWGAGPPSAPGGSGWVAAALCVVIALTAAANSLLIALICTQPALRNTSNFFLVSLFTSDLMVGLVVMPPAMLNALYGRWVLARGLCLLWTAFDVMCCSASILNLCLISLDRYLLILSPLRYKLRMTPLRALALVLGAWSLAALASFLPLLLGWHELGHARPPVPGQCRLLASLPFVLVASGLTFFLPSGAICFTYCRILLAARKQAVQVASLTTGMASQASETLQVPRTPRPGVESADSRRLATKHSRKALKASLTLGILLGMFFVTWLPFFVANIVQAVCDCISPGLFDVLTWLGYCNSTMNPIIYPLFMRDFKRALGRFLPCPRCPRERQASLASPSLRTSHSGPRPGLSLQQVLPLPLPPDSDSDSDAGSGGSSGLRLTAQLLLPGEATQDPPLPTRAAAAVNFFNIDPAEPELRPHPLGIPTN

Structure (SMILES)	IC50 [1]	IC50 [2]	Ki [2]	IC50 [3]	Ki [3]	IC50 [4]	IC50 ([5]; read-out: IC50) [µM]	Ki ([5]; read-out: Ki) [µM]	IC50 [6]	Ki [6]	IC50 [7]	IC50 [8]	IC50 ([5]; hek293)	IC50 ([8]; read-out: IC50) [µM]	Ki ([8]; read-out: Ki) [µM]
CN(C)c1ccc(C(=C2C=CC(=[N+](C)C)C=C2)c2ccc(N(C)C)cc2)cc1.[Cl-] [GENTIAN VIOLET]	Not Active	Not Active	Not Active	Not Active	Not Active	Not Active	1.98	0.973	Not Active	Not Active	Not Active	Not Active	–	–	–
Cc1ccc(S(=O)(=O)NC(=O)NN2CC3CCCC3C2)cc1 (configuration not stated) [GLICLAZIDE]	Not Active	Not Active	Not Active	Not Active	Not Active	Not Active	–	–	Not Active	Not Active	Not Active	Not Active	Not Active	–	–
NC(=O)NO [HYDROXYUREA]	Not Active	Not Active	Not Active	Not Active	Not Active	Not Active	–	–	Not Active	Not Active	Not Active	Not Active	Not Active	–	–
CC(C)Cc1ccc(C(C)C(=O)O)cc1 (configuration not stated) [IBUPROFEN]	Not Active	Not Active	Not Active	Not Active	Not Active	Not Active	–	–	Not Active	Not Active	Not Active	Not Active	Not Active	–	–
COc1ccc2c(c1)c(CC(=O)O)c(C)n2C(=O)c1ccc(Cl)cc1 [INDOMETHACIN]	Not Active	Not Active	Not Active	Not Active	Not Active	Not Active	–	–	Not Active	Not Active	Not Active	Not Active	Not Active	–	–
CCc1c2c(nc3ccc(OC(=O)N4CCC(N5CCCCC5)CC4)cc13)-c1cc3c(c(=O)n1C2)COC(=O)[C@]3(O)CC [IRINOTECAN]	Not Active	Not Active	Not Active	Not Active	Not Active	Not Active	–	–	Not Active	Not Active	Not Active	Not Active	Not Active	–	–
CC(C(=O)O)c1cccc(C(=O)c2ccccc2)c1 (configuration not stated) [KETOPROFEN]	Not Active	Not Active	Not Active	Not Active	Not Active	Not Active	–	–	Not Active	Not Active	Not Active	Not Active	Not Active	–	–
Nc1ccn([C@@H]2CS[C@H](CO)O2)c(=O)n1 [LAMIVUDINE]	Not Active	Not Active	Not Active	Not Active	Not Active	Not Active	–	–	Not Active	Not Active	Not Active	Not Active	Not Active	–	–
O=S(=O)([O-])CCS.[Na+] [MESNA]	Not Active	Not Active	Not Active	Not Active	Not Active	Not Active	–	–	Not Active	Not Active	Not Active	Not Active	Not Active	–	–
C#C[C@]1(O)CC[C@H]2[C@@H]3CCc4cc(OC)ccc4[C@H]3CC[C@@]21C [MESTRANOL]	Not Active	Not Active	Not Active	Not Active	Not Active	Not Active	–	–	Not Active	Not Active	Not Active	–	Not Active	84.4	11
CC(=O)Nc1cccc(O)c1 [METACETAMOL]	Not Active	Not Active	Not Active	Not Active	Not Active	Not Active	–	–	Not Active	Not Active	Not Active	Not Active	Not Active	–	–
Cc1ncc([N+](=O)[O-])n1CCO [METRONIDAZOLE]	Not Active	Not Active	Not Active	Not Active	Not Active	Not Active	–	–	Not Active	Not Active	Not Active	Not Active	Not Active	–	–
CC(C)(C(=O)c1cccnc1)c1cccnc1 [METYRAPONE]	Not Active	Not Active	Not Active	Not Active	Not Active	Not Active	–	–	Not Active	Not Active	Not Active	Not Active	Not Active	–	–
Oc1ccc(OCc2ccccc2)cc1 [MONOBENZONE]	Not Active	Not Active	Not Active	Not Active	Not Active	Not Active	–	–	Not Active	Not Active	Not Active	Not Active	Not Active	–	–
CC(C)(Oc1ccc(C2CCCc3ccccc32)cc1)C(=O)O (configuration not stated) [NAFENOPIN]	Not Active	Not Active	Not Active	Not Active	Not Active	Not Active	–	–	Not Active	Not Active	Not Active	Not Active	Not Active	–	–
COc1ccc2cc([C@H](C)C(=O)O)ccc2c1 [NAPROXEN]	Not Active	Not Active	Not Active	Not Active	Not Active	Not Active	–	–	Not Active	Not Active	Not Active	Not Active	Not Active	–	–
CC(C)[C@H]1CC[C@H](C(=O)N[C@H](Cc2ccccc2)C(=O)O)CC1 [NATEGLINIDE]	Not Active	Not Active	Not Active	Not Active	Not Active	Not Active	–	–	Not Active	Not Active	Not Active	Not Active	Not Active	–	–
CCN[C@@H]1C[C@H](N)[C@@H](O[C@H]2OC(CN)=CC[C@H]2N)[C@H](O)[C@H]1O[C@H]1OC[C@](C)(O)[C@H](NC)[C@H]1O [NETILMICIN]	Not Active	Not Active	Not Active	Not Active	Not Active	Not Active	–	–	Not Active	Not Active	Not Active	Not Active	Not Active	–	–
COC(=O)C1=C(C)NC(C)=C(C(=O)OCC(C)C)C1c1ccccc1[N+](=O)[O-] (configuration not stated) [NISOLDIPINE]	Not Active	Not Active	Not Active	Not Active	Not Active	Not Active	–	–	Not Active	Not Active	Not Active	Not Active	Not Active	–	–
CCOC(=O)C1=C(C)NC(C)=C(C(=O)OC)C1c1cccc([N+](=O)[O-])c1 (configuration not stated) [NITRENDIPINE]	Not Active	Not Active	Not Active	Not Active	Not Active	Not Active	–	–	Not Active	Not Active	Not Active	Not Active	Not Active	–	–
